Structures are written as SMILES.

A word on the IC50: it is the concentration that inhibits the measured activity by half.

The target of one assay is T1, SYK (Homo sapiens, UniProt P43405).
T1 construct: purchased Eurofins DiscoverX (contract assay service)
The assay can be described thus: Eurofins DiscoverX SYK enzymatic radiometric assay. The class given is biochemical. To be noted: for IC50: Km value for ATP, 9-pt dose-response.

A further assay deals with T2, SYK(WT)-NL (Homo sapiens, UniProt P43405).
T2 construct: SYK tracers enable BRET with full-length SYK(WT) after digitonin permeabilization; host or cells: HEK293
The assay is described as follows: NanoBRET assay in digitonin permeabilized HEK293 cells, SYK(WT)-NL. The class given is cell-based. To be noted: C-terminal NL fusion, tracer 0.5, 1, 2 μM. In general terms: Bioluminescence resonance energy transfer reports proximity on the nanometre scale.

The next assay deals with T3, SYK(KD)-NL or NL-SYK(KD) (Homo sapiens, UniProt P43405).
T3 construct: N- and C-terminally-tagged NL SYK kinase domain constructs lacking the tandem SH2 domains were prepared; expressed in transfected cells; host or cells: HEK293
The assay can be described thus: NanoBRET tracer optimization with SYK kinase domain only constructs. The assay is classed as cell-based. To be noted: with or without digitonin, N- or C-terminal NL. As to the method: HEK293 cells were transfected with constructs of SYK (WT, KD, and GoF variants) tagged with NL on the N- or C-terminus as previously described ([Wells et al., 2021]). Constructs for NanoBRET measurements of SYK(WT) (NL-SYK(WT) and SYK(WT)-NL) and SYK GoF variants (SYK(S550Y)-NL, SYK(S550F)-NL, SYK(P342T)-NL, SYK(M450I)-NL, and SYK(A353T)-NL) were kindly provided by Promega. NL orientations used in the respective assays are indicated. Cells were plated in 96-well tissue culture-treated plates (Corning, #3917) at a cell density of 2 × 10^5 cells/mL, with a total volume of 100 μL per well in DMEM +10% FBS. After 16 h, the media was aspirated from the plate and replaced with room temperature Opti-MEM without phenol red (Gibco, #11058021), 100 μL in no tracer wells; 95 μL in tracer only wells; 90 μL in no tracer wells and with digitonin treated plates, 90 μL in no tracer wells; 85 μL in tracer only wells; 80 μL in no tracer wells. Plates were incubated for 25 min at room temperature if digitonin was added or for 2 h at 37°C in 5% CO2 for the intact cell NanoBRET assay. NanoBRET plates were read after the addition of 50 μL of a stock solution (3X) containing NanoBRET NanoGlo substrate (Promega, #N2161), extracellular NanoLuc inhibitor (Promega, #N2161) when reading assay plates performed in intact live cells, and Opti-MEM without phenol red (Gibco, #11058021). For intact live cells in a 96-well plate, the 3X stock solution was prepared with 30 μL of NanoBRET NanoGlo substrate, 10 μL of extracellular NanoLuc inhibitor, and 4,960 μL of Opti-MEM without phenol red. For digitonin permeabilized live cells in a 96-well plate, the 3X stock solution was prepared with 30 μL of NanoBRET NanoGlo substrate and 4,970 μL of Opti-MEM without phenol red. Raw milliBRET units (mBU) were read on a GloMax Discover system (Promega) with a donor emission wavelength of 450 nm and an acceptor emission wavelength of 600 nm. mBU were calculated by dividing the acceptor emission values (600 nm) by the donor emission values (450 nm). For NanoBRET studies with SYK, background corrected mBU were calculated by subtracting the no tracer wells from the tracer-containing wells and multiplying by 1,000. Where the results are reported as a BRET fold change, this is the BRET ratio for the vehicle-treated sample divided by BRET for the inhibitor-treated sample.
HEK293 cells were transfected with constructs of SYK(WT) or SYK(KD) tagged with NL on the C- or N-terminus and SYK GoF variants tagged with NL on the C-terminus. Tracer 8 (20X) was prepared from a 400 μM stock solution in DMSO with tracer dilution buffer (Promega, #N291B) and 20% DMSO, with a final assay plate concentration of 1% DMSO. […]

Assay [1] has as its system FGR, MLK1, YES, FLT3, PAK5, LYN, SRC, and LCK. To be noted: ref Coffey et al., 2012, Spurgeon et al., 2013, cited from earlier work.

Experimental for SYK(WT)-NL: We performed NanoBRET tracer optimization to determine if the SYK tracers could effectively generate a BRET signal. […] To enable the NanoBRET assay using tracer 8 with cells permeabilized by digitonin, a tracer dose–response study was performed for each SYK(GoF) variant and SYK(WT) (Figure 3A), followed by tracer titration experiments (Figure 3B; Supplementary Figure S3). […] Initially, we determined the EC50 of tracer 8 for each SYK(GoF) variant and SYK(WT). […] Plates were incubated for 25 min at room temperature if digitonin was added or for 2 h at 37°C in 5% CO2 for the intact cell NanoBRET assay. […] For intact live cells in a 96-well plate, the 3X stock solution was prepared with 30 μL of NanoBRET NanoGlo substrate, 10 μL of extracellular NanoLuc inhibitor, and 4,960 μL of Opti-MEM without phenol red. For digitonin permeabilized live cells in a 96-well plate, the 3X stock solution was prepared with 30 μL of NanoBRET NanoGlo substrate and 4,970 μL of Opti-MEM without phenol red. Raw milliBRET units (mBU) were read on a GloMax Discover system (Promega) with a donor emission wavelength of 450 nm and an acceptor emission wavelength of 600 nm. mBU were calculated by dividing the acceptor emission values (600 nm) by the donor emission values (450 nm). For NanoBRET studies with SYK, background corrected mBU were calculated by subtracting the no tracer wells from the tracer-containing wells and multiplying by 1,000.
HEK293 cells were transfected with constructs of SYK(WT) or SYK(KD) tagged with NL on the C- or N-terminus and SYK GoF variants tagged with NL on the C-terminus. Tracer 8 (20X) was prepared from a 400 μM stock solution in DMSO with tracer dilution buffer (Promega, #N291B) and 20% DMSO, with a final assay plate concentration of 1% DMSO. 5 μL of 8 (20X) was added to each well, with exception of the no tracer control wells, with final plate concentrations of 0.5, 1, and 2 μM. 10 μL of digitonin (Fisher, 10X, 500 μg/mL) was added to specific wells to permeabilize the cells. The 10X digitonin stock was prepared by diluting a 40X DMSO solution of digitonin with room temperature Opti-MEM without phenol red, for a final assay plate concentration of 1% DMSO. SYK inhibitor stock solutions of MRL-SYKi (10X) were prepared from 10 mM DMSO stock solutions with room temperature Opti-MEM without phenol red, for final assay plate concentrations of 10 μM. Plates were incubated for 25 min at room temperature if digitonin was added or for 2 h at 37°C in 5% CO2 for the intact cell NanoBRET assay. Two technical replicates were plotted in a bar chart with the standard deviation represented as error bars on Graphpad Prism.

Consider `O=C(CCc1ccc2n1[B-](F)(F)[N+]1=C(c3ccc[nH]3)C=CC1=C2)NCCOCCOCCOCCC(=O)N1CCN(c2ccc(Nc3nc(-c4ccc5cn[nH]c5c4)cn4ccnc34)cc2)CC1` [Tracer 2], for which the 50% inhibitory concentration (IC50) against SYK was determined as 2400 nM. Also, at SYK(WT)-NL, the “BRET signal (background subtracted)” value was determined as 4 mBU. For the same compound, the BRET signal entry at SYK(KD)-NL or NL-SYK(KD) is reported as “did not generate a BRET signal”.

As to `Cn1ncc2ccc(-c3cn4ccnc4c(Nc4ccc(N5CCNCC5)cc4)n3)cc21` [Tracer 3], on SYK, the concentration for half-maximal inhibition (IC50) is 97 nM.

Take `Cn1ncc2ccc(-c3cn4ccnc4c(Nc4ccc(N5CCN(C(=O)CCc6ccc7n6[B-](F)(F)[N+]6=C(c8ccc[nH]8)C=CC6=C7)CC5)cc4)n3)cc21` [Tracer 4]: the IC50 at SYK was > 10000 nM. In addition, the “BRET signal (background subtracted)” value on SYK(WT)-NL was “did not generate a BRET signal”. On SYK(KD)-NL or NL-SYK(KD), the BRET signal entry was “did not generate a BRET signal”.

In turn, `CC1(C)Oc2ccc(Nc3nc(Nc4cccc(OCC(=O)NCCOCCOCCOCCNC(=O)CCc5ccc6n5[B-](F)(F)[N+]5=C(c7ccc[nH]7)C=CC5=C6)c4)ncc3F)nc2NC1=O` [Tracer 5] gave an IC50 on SYK of 1100 nM. Also, the “BRET signal (background subtracted)” value at SYK(WT)-NL is reported as > 10 mBU. Further, the BRET signal entry on SYK(KD)-NL or NL-SYK(KD) was “did not generate a BRET signal”.

Take `CC1(C)Oc2ccc(Nc3nc(Nc4cccc(OCC(=O)NCCNC(=O)CCc5ccc6n5[B-](F)(F)[N+]5=C(c7ccc[nH]7)C=CC5=C6)c4)ncc3F)nc2NC1=O` [Tracer 6]: at SYK, the IC50 came out at 1400 nM. The “BRET signal (background subtracted)” value at SYK(WT)-NL is > 10 mBU. The BRET signal entry at SYK(KD)-NL or NL-SYK(KD) is “did not generate a BRET signal”.

As to `Cc1cc(Nc2nccc(C)n2)cc(-c2cnc([C@@]3(O)CC[C@H](C(=O)NCCOCCOCCOCCNC(=O)CCc4ccc5n4[B-](F)(F)[N+]4=C(c6ccc[nH]6)C=CC4=C5)C(C)(C)C3)s2)c1` [Tracer 7], at SYK, the IC50 was 470 nM. The “decrease in potency compared to the parent inhibitor MRL-SYKi” value on SYK (ratio of enzymatic IC50) came to 15.6 fold. Besides, the “BRET signal (background subtracted)” value at SYK(WT)-NL is listed as > 10 mBU.

Take `NC(=O)c1cnc(N[C@@H]2CCCC[C@@H]2N)nc1Nc1cccc(-n2nccn2)c1` [Tracer P505-15]: the “inhibition of eight kinases” value in assay [1] (at 300 nM) is on record as “greater than 80%”. Further, the IC50 in assay [1] (dose-response, read-out: enzymatic IC50 of the closest off-target) is 81 nM. Also, the “closest off-target less potent compared to SYK” value in assay [1] is 81 fold.

The record behind these values is article PMC13089524, “Development of SYK NanoBRET cellular target engagement assays for gain–of–function variants” (Frontiers in chemical biology, 2024).
